ChEMBL document CHEMBL3244293, “Antiallergic activity of some 9H-xanthen-9-one-2-carboxylic acids” (J Med Chem, 1978)

Key:
Rattus norvegicus [1] = assay: (§1) Antiallergic activity in anti-Nippostrongylus brasiliensis homocytotropic antibody-injected Sprague-Dawley rat assessed as inhibition of passive cutaneous anaphylaxis reaction at 5 mg/kg, ip administered 15 mins prior to worm extract antigen challenge measured 45 mins following antigen challenge by Evans blue dye staining; format: functional; conditions: route intraperitoneal
Rattus norvegicus [2] = assay: as §1, with “at 10” for “at 5”; format: functional; conditions: route intraperitoneal; for inhibition in vivo at 10 mg/kg: Rattus norvegicus, Sprague-Dawley, ip
[3] = 1-Octanol-citrate buffer partition coefficient, log P of the compound at pH 4.0 by UV spectrometry; format: physicochemical
Rattus norvegicus [4] = assay: as §1, with “at 25” for “at 5”, “mg/kg, po” for “mg/kg, ip”, “administered 8” for “administered 15”; format: functional

Structure (SMILES) | logD [3] | inhibition in vivo at 5 mg/kg (Rattus norvegicus [1]) [%] | inhibition in vivo at 10 mg/kg (Rattus norvegicus [2]) [%] | log(%) (Rattus norvegicus [2]) | inhibition in vivo at 25 mg/kg (Rattus norvegicus [4]) [%]
O=C(O)c1ccc2oc3ccc(OCC(O)CSc4ccc(Br)cc4)cc3c(=O)c2c1 (stereo not given) | – | 14 | – | – | –
CCCCCCCSCC(O)COc1ccc2oc3ccc(C(=O)O)cc3c(=O)c2c1 (stereo not given) | 2.81 | – | 17 | 1.23 | –
O=C(O)c1ccc2oc3ccc(OCC(O)C[S+]([O-])c4ccccc4)cc3c(=O)c2c1 (stereo not given) | – | 42 | – | – | –
O=C(O)c1ccc2oc3ccc(OCCO)cc3c(=O)c2c1 | – | 100 | 100 | – | 100
O=C(O)c1ccc2oc3ccc(OCC(O)CSc4ccc(Cl)cc4)cc3c(=O)c2c1 (stereo not given) | – | 37 | – | – | –
CSCC(O)COc1ccc2oc3ccc(C(=O)O)cc3c(=O)c2c1 (stereo not given) | 2.81 | – | 71 | 1.85 | 48
O=C(O)c1ccc2oc3ccc(OCC(O)CSc4ccccc4)cc3c(=O)c2c1 (stereo not given) | 3.8 | 88 | 100 | 2 | 22
O=C(O)c1ccc2oc3ccc(OCC(O)CSC45CC6CC(CC(C6)C4)C5)cc3c(=O)c2c1 (stereo not given) | 2.58 | – | 16 | 1.2 | –
O=C(O)c1ccc2oc3ccc(OCC(O)CSC4CCCCC4)cc3c(=O)c2c1 (stereo not given) | 2.95 | – | 39 | 1.59 | –
O=C(O)c1ccc2oc3ccc(OCC(O)CSc4ccc(Cl)c(Cl)c4)cc3c(=O)c2c1 (stereo not given) | – | 7 | – | – | –
O=C(O)c1ccc2oc3ccc(OCC(O)CSc4ccc(F)cc4)cc3c(=O)c2c1 (stereo not given) | – | 38 | – | – | –
O=C(O)c1cc(=O)c2c(OCC(O)COc3cccc4oc(C(=O)O)cc(=O)c34)cccc2o1 [CROMOLYN SODIUM] | – | – | 89 | – | –
O=C(O)c1ccc2oc3ccc(OCC(O)COCCO)cc3c(=O)c2c1 (stereo not given) | 2.31 | – | 77 | 1.89 | –
COc1ccc(SCC(O)COc2ccc3oc4ccc(C(=O)O)cc4c(=O)c3c2)cc1 (stereo not given) | – | 51 | – | – | –
O=C(O)c1ccc2oc3ccc(OCC(O)CSCCO)cc3c(=O)c2c1 (stereo not given) | 2.32 | – | 100 | 2 | 0

More lines, main results first:

logD [3] | Structure (SMILES) | inhibition in vivo at 5 mg/kg (Rattus norvegicus [1]) [%] | inhibition in vivo at 10 mg/kg (Rattus norvegicus [2]) [%] | log(%) (Rattus norvegicus [2]) | inhibition in vivo at 25 mg/kg (Rattus norvegicus [4]) [%]
2.83 | CC(C)(C)SCC(O)COc1ccc2oc3ccc(C(=O)O)cc3c(=O)c2c1 (stereo not given) | – | 83 | 1.92 | –
2.13 | COCC(O)COc1ccc2oc3ccc(C(=O)O)cc3c(=O)c2c1 (stereo not given) | – | 29 | 1.46 | –
2.33 | O=C(O)c1ccc2oc3ccc(OCC(O)CO)cc3c(=O)c2c1 (stereo not given) | – | 78 | 1.89 | 19
2.08 | COCCOCC(O)COc1ccc2oc3ccc(C(=O)O)cc3c(=O)c2c1 (stereo not given) | – | 99 | 2 | 15
3.14 | O=C(O)c1ccc2oc3ccc(OCC(O)COCC(F)(F)F)cc3c(=O)c2c1 (stereo not given) | – | 100 | 2 | 0
3.06 | CC(C)SCC(O)COc1ccc2oc3ccc(C(=O)O)cc3c(=O)c2c1 (stereo not given) | – | 38 | 1.54 | –
1.36 | C[S+]([O-])CC(O)COc1ccc2oc3ccc(C(=O)O)cc3c(=O)c2c1 (stereo not given) | – | 100 | 2 | 0
